Test results taken from the supplement of paper PMC8617591.

What was measured:
[1] = system: Mycobacterium tuberculosis Erdman (autoluminescent); assay: AUC25, normalised area under dose response up to IC25 (three-drug combination) (fraction (0-1)); higher = more potent at low dose
Method: (§1)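 DiaMOND equipotent three-drug combination dose responses (10 doses, 1.5- or 2-fold spacing, centred on IC90) against autoluminescent M. tuberculosis Erdman in 8 in vitro models. Read-out is OD600, or luminescence for the intracellular and dormancy models, normalised to untreated wells. Hill-fit Einf, AUC25 and GRinf are potency metrics; FIC50 and FIC90 are total Loewe fractional inhibitory concentrations as log2 (negative = synergy).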

[2] = system: Mycobacterium tuberculosis Erdman (autoluminescent); assay: GRinf, maximum normalised growth rate inhibition (three-drug combination) (unitless (-1 to 1)); higher = less effect (negative = killing)
Method: as §1

[3] = system: Mycobacterium tuberculosis Erdman (autoluminescent); assay: total FIC50 (Loewe) at 50% inhibition, three-drug combination (log2); higher = more antagonistic
Method: as §1

[4] = system: Mycobacterium tuberculosis Erdman (autoluminescent); assay: Einf, fitted maximum growth inhibition of three-drug combination (fraction); higher = stronger maximal inhibition
Method: as §1

[5] = system: Mycobacterium tuberculosis Erdman (autoluminescent); assay: total FIC90 (Loewe) at 90% inhibition, three-drug combination (log2); higher = more antagonistic
Method: as §1

CC(=O)NC[C@H]1CN(c2ccc(N3CCOCC3)c(F)c2)C(=O)O1 [linezolid] + NC(=O)c1cnccn1 [pyrazinamide] + CO[C@H]1/C=C/O[C@@]2(C)Oc3c(C)c(O)c4c(O)c(c(/C=N/N5CCN(C6CCCC6)CC5)c(O)c4c3C2=O)NC(=O)/C(C)=C\C=C\[C@H](C)[C@H](O)[C@@H](C)[C@@H](O)[C@@H](C)[C@H](OC(C)=O)[C@@H]1C [rifapentine]
Settings | AUC25, [1] | Einf, [4] | GRinf, [2] | total FIC50, [3] | total FIC90, [5]
in vitro model: acidic pH 5.7, time point: constant (~7 days, model-specific) | 0.105 | 0.91 | -0.206 | 0.0539 | –
in vitro model: acidic pH 5.7, time point: terminal (~4-5 doublings, model-specific) | 0.0872 | 0.992 | -0.258 | -0.0159 | –
in vitro model: intracellular J774, time point: constant = terminal | – | 0.947 | -0.174 | – | -0.0473

Settings | AUC25, [1] | Einf, [4] | GRinf, [2] | total FIC50, [3] | total FIC90, [5]
in vitro model: butyrate, time point: constant (~7 days, model-specific) | 0.0966 | 0.892 | 0.08 | -0.0866 | –
in vitro model: butyrate, time point: terminal (~4-5 doublings, model-specific) | 0.0673 | 0.94 | 0.0873 | 0.038 | -0.132
in vitro model: cholesterol 0.05 mM, time point: constant (~7 days, model-specific) | 0.143 | 0.758 | -0.43 | – | –
in vitro model: cholesterol 0.05 mM, time point: terminal (~4-5 doublings, model-specific) | 0.139 | 0.938 | -0.446 | 0.219 | –
in vitro model: cholesterol-high 0.2 mM, time point: constant (~7 days, model-specific) | 0.112 | 0.952 | -0.497 | 0.301 | –
in vitro model: cholesterol-high 0.2 mM, time point: terminal (~4-5 doublings, model-specific) | 0.0909 | 1 | -0.945 | 0.319 | -0.0261
in vitro model: dormancy (butyrate + nitrate, low O2), time point: constant (~7 days, model-specific) | 0.0577 | 0.867 | 0.245 | 0.405 | 0.766
in vitro model: dormancy (butyrate + nitrate, low O2), time point: terminal (~4-5 doublings, model-specific) | 0.0343 | 0.976 | -0.12 | 0.486 | 0.153
in vitro model: standard 7H9 glycerol, time point: constant = terminal | 0.0547 | 0.876 | 0.183 | 0.187 | –
in vitro model: valerate, time point: constant (~7 days, model-specific) | 0.0698 | 0.865 | 0.0833 | -0.277 | –
in vitro model: valerate, time point: terminal (~4-5 doublings, model-specific) | 0.0324 | 0.921 | 0.0692 | -0.0139 | -0.406

CC(=O)NC[C@H]1CN(c2ccc(N3CCOCC3)c(F)c2)C(=O)O1 [linezolid] + NC(=O)c1cnccn1 [pyrazinamide] + CO[C@H]1/C=C/O[C@@]2(C)Oc3c(C)c(O)c4c(O)c(c(/C=N/N5CCN(C)CC5)c(O)c4c3C2=O)NC(=O)/C(C)=C\C=C\[C@H](C)[C@H](O)[C@@H](C)[C@@H](O)[C@@H](C)[C@H](OC(C)=O)[C@@H]1C [rifampicin]
Settings | AUC25, [1] | Einf, [4] | GRinf, [2] | total FIC50, [3] | total FIC90, [5]
in vitro model: acidic pH 5.7, time point: constant (~7 days, model-specific) | 0.0897 | 0.883 | -0.255 | 0.175 | –
in vitro model: acidic pH 5.7, time point: terminal (~4-5 doublings, model-specific) | 0.0731 | 0.986 | -0.249 | 0.189 | –
in vitro model: intracellular J774, time point: constant = terminal | – | 0.953 | -0.411 | – | -0.0717

Settings | AUC25, [1] | Einf, [4] | GRinf, [2] | total FIC50, [3] | total FIC90, [5]
in vitro model: butyrate, time point: constant (~7 days, model-specific) | 0.0912 | 0.889 | 0.0887 | -0.0235 | 0.328
in vitro model: butyrate, time point: terminal (~4-5 doublings, model-specific) | 0.075 | 0.94 | 0.0909 | -0.114 | -0.413
in vitro model: cholesterol 0.05 mM, time point: constant (~7 days, model-specific) | 0.141 | 0.702 | -0.117 | – | –
in vitro model: cholesterol 0.05 mM, time point: terminal (~4-5 doublings, model-specific) | 0.127 | 0.929 | -0.289 | 0.713 | –
in vitro model: cholesterol-high 0.2 mM, time point: constant (~7 days, model-specific) | 0.116 | 0.926 | -0.72 | 0.321 | –
in vitro model: cholesterol-high 0.2 mM, time point: terminal (~4-5 doublings, model-specific) | 0.104 | 0.995 | -0.826 | 0.598 | 0.554
in vitro model: dormancy (butyrate + nitrate, low O2), time point: constant (~7 days, model-specific) | 0.0758 | 0.893 | 0.203 | 0.486 | 0.378
in vitro model: dormancy (butyrate + nitrate, low O2), time point: terminal (~4-5 doublings, model-specific) | 0.0314 | 0.972 | -0.277 | 0.208 | -0.126
in vitro model: standard 7H9 glycerol, time point: constant = terminal | 0.0779 | 0.908 | 0.119 | -0.168 | –
in vitro model: valerate, time point: constant (~7 days, model-specific) | 0.0571 | 0.853 | 0.1 | 0.122 | –
in vitro model: valerate, time point: terminal (~4-5 doublings, model-specific) | 0.0305 | 0.925 | 0.0656 | 0.211 | -0.35

CC(=O)NC[C@H]1CN(c2ccc(N3CCOCC3)c(F)c2)C(=O)O1 [linezolid] + O=[N+]([O-])c1cn2c(n1)OC[C@@H](OCc1ccc(OC(F)(F)F)cc1)C2 [pretomanid] + CO[C@H]1/C=C/O[C@@]2(C)Oc3c(C)c(O)c4c(O)c(c(/C=N/N5CCN(C6CCCC6)CC5)c(O)c4c3C2=O)NC(=O)/C(C)=C\C=C\[C@H](C)[C@H](O)[C@@H](C)[C@@H](O)[C@@H](C)[C@H](OC(C)=O)[C@@H]1C [rifapentine]
Settings | AUC25, [1] | Einf, [4] | GRinf, [2] | total FIC50, [3] | total FIC90, [5]
in vitro model: acidic pH 5.7, time point: constant (~7 days, model-specific) | 0.0833 | 0.887 | 0.0321 | 0.893 | –
in vitro model: acidic pH 5.7, time point: terminal (~4-5 doublings, model-specific) | 0.0609 | 0.978 | 0.00722 | 0.838 | 0.632
in vitro model: intracellular J774, time point: constant = terminal | – | 0.953 | -0.276 | – | 0.646

Settings | AUC25, [1] | Einf, [4] | GRinf, [2] | total FIC50, [3] | total FIC90, [5]
in vitro model: butyrate, time point: constant (~7 days, model-specific) | 0.0937 | 0.91 | -0.0425 | 0.403 | 0.09
in vitro model: butyrate, time point: terminal (~4-5 doublings, model-specific) | 0.0716 | 0.955 | 0.0296 | 0.296 | 0.336
in vitro model: cholesterol 0.05 mM, time point: constant (~7 days, model-specific) | 0.142 | 0.677 | -0.167 | 0.533 | –
in vitro model: cholesterol 0.05 mM, time point: terminal (~4-5 doublings, model-specific) | 0.127 | 0.89 | -0.198 | 0.278 | 0.6
in vitro model: cholesterol-high 0.2 mM, time point: constant (~7 days, model-specific) | 0.0858 | 0.912 | -0.159 | 0.139 | 0.124
in vitro model: cholesterol-high 0.2 mM, time point: terminal (~4-5 doublings, model-specific) | 0.095 | 1 | -0.71 | 0.348 | 0.313
in vitro model: dormancy (butyrate + nitrate, low O2), time point: constant (~7 days, model-specific) | 0.0497 | 0.894 | 0.223 | 0.906 | 0.707
in vitro model: dormancy (butyrate + nitrate, low O2), time point: terminal (~4-5 doublings, model-specific) | 0.0403 | 0.979 | -0.0764 | 0.858 | 0.899
in vitro model: standard 7H9 glycerol, time point: constant = terminal | 0.0904 | 0.932 | -0.132 | 0.424 | 0.754
in vitro model: valerate, time point: constant (~7 days, model-specific) | 0.159 | 0.913 | -0.446 | -1.08 | –
in vitro model: valerate, time point: terminal (~4-5 doublings, model-specific) | 0.125 | 0.966 | -0.15 | -0.336 | 1.3

CC(=O)NC[C@H]1CN(c2ccc(N3CCOCC3)c(F)c2)C(=O)O1 [linezolid] + O=[N+]([O-])c1cn2c(n1)OC[C@@H](OCc1ccc(OC(F)(F)F)cc1)C2 [pretomanid] + CO[C@H]1/C=C/O[C@@]2(C)Oc3c(C)c(O)c4c(O)c(c(/C=N/N5CCN(C)CC5)c(O)c4c3C2=O)NC(=O)/C(C)=C\C=C\[C@H](C)[C@H](O)[C@@H](C)[C@@H](O)[C@@H](C)[C@H](OC(C)=O)[C@@H]1C [rifampicin]
Settings | AUC25, [1] | Einf, [4] | GRinf, [2] | total FIC50, [3] | total FIC90, [5]
in vitro model: acidic pH 5.7, time point: constant (~7 days, model-specific) | 0.0793 | 0.893 | -0.221 | 0.745 | –
in vitro model: acidic pH 5.7, time point: terminal (~4-5 doublings, model-specific) | 0.0641 | 0.987 | -0.265 | 0.832 | 0.521
in vitro model: intracellular J774, time point: constant = terminal | – | 0.98 | -0.287 | – | 0.288

Settings | AUC25, [1] | Einf, [4] | GRinf, [2] | total FIC50, [3] | total FIC90, [5]
in vitro model: butyrate, time point: constant (~7 days, model-specific) | 0.0869 | 0.896 | 0.0695 | 0.127 | 0.148
in vitro model: butyrate, time point: terminal (~4-5 doublings, model-specific) | 0.0669 | 0.948 | 0.0615 | 0.00331 | -0.305
in vitro model: cholesterol 0.05 mM, time point: constant (~7 days, model-specific) | 0.128 | 0.66 | -0.0769 | 0.0451 | –
in vitro model: cholesterol 0.05 mM, time point: terminal (~4-5 doublings, model-specific) | 0.127 | 0.895 | -0.203 | 0.545 | -0.354
in vitro model: cholesterol-high 0.2 mM, time point: constant (~7 days, model-specific) | 0.0921 | 0.885 | -0.118 | 0.326 | 1.11
in vitro model: cholesterol-high 0.2 mM, time point: terminal (~4-5 doublings, model-specific) | 0.0881 | 0.972 | -0.505 | 0.645 | 0.499
in vitro model: dormancy (butyrate + nitrate, low O2), time point: constant (~7 days, model-specific) | 0.0572 | 0.911 | 0.214 | 0.855 | 0.28
in vitro model: dormancy (butyrate + nitrate, low O2), time point: terminal (~4-5 doublings, model-specific) | 0.0401 | 0.97 | -0.0505 | 0.25 | 0.29
in vitro model: standard 7H9 glycerol, time point: constant = terminal | 0.0674 | 0.915 | 0.0995 | 0.0346 | -0.714
in vitro model: valerate, time point: constant (~7 days, model-specific) | 0.1 | 0.89 | -0.015 | 0.394 | –
in vitro model: valerate, time point: terminal (~4-5 doublings, model-specific) | 0.0505 | 0.925 | 0.0379 | 0.622 | 0.278
